We go through three molecules from US11324832B2, “Tripartite modulators of endosomal G protein-coupled receptors” (Endosome Therapeutics, Inc., priority 2015, dated 2022).

Structures are written as SMILES. Where a SMILES comes first, the peptide text is derived from it. [ ]: non-standard residue; d: D form. The star is where a group is joined. X1 = CC(C)CCC[C@@H](C)[C@H]1CC[C@H]2[C@@H]3CC[C@H]4C[C@@H](O*)CC[C@]4(C)[C@H]3CC[C@]12C; PEG4 = NCCOCCOCCOCCOCCC(=O)O; PEG3 = NCCOCCOCCOCCC(=O)O Where only a bound is given, the exact number is not on record here.

Data set [1] concerns the target T1, NK1R (Rattus norvegicus, UniProt P14600). Briefly: FRET biosensors of compartmentalized signaling (ERK, PKC, cAMP) in NK1R-expressing HEK293 cells. More on the design: Full length and truncated 6312 rat HA-NK1R have been described; expressed in transfected cells; host or cells: HEK293 (transient). The format is cell-based. As to conditions: for effect on SP activation of cytosolic ERK / effect on SP-induced plasma membrane cAMP / effect on plasma membrane PKC activity: endocytic inhibitor plus SP 1 nM; for effect on SP stimulation of cytosolic PKC / effect on SP stimulation of cytosolic cAMP / effect on SP stimulation of nuclear ERK: endocytic or signaling inhibitor plus SP 1 nM. As to the method: To study the link between NK1R trafficking and signaling, the NK1R and Förster Resonance Energy Transfer (FRET) biosensors targeted to detect activated ERK in the cytosol (CytoEKAR) or nucleus (NucEKAR, FIG. 2A), activated PKC at the plasma membrane (pmCKAR) or in the cytosol (CytoCKAR, FIG. 2C), and cAMP at the plasma membrane (pmEpac2) or in the cytosol (CytoEpac2, FIG. 2E) were expressed in HEK293 cells.
HEK293 cells were transfected with 55 ng/well rat NK1R with N-terminal HA. 11 epitope tag (HA-NK1R) or CLR plus RAMP1 and 40 ng/well FRET biosensors. FRET was assessed 48 h after transfection, following serum restriction (0.5% FBS overnight). For experiments using clathrin or dynamin siRNA, cells were transfected with 55 ng/well rat HA-NK1R, 40 ng/well FRET biosensor and 25 nM/well scrambled, clathrin or dynamin ON-TARGETplus SMARTpool siRNA (GE Dharmacon). FRET was assessed 72 h after transfection, following serum restriction (0.5% FBS overnight). Cells were equilibrated in HBSS at 37° C. and FRET was analyzed using a GE Healthcare INCell 2000 Analyzer. For GFP/RFP emission ratio analysis, cells were sequentially excited using a FITC filter (490/20) with emission measured using dsRed (605/52) and FITC (525/36) filters, and a polychroic optimized for the FITC/dsRed filter pair (Quad4). For CFP/YFP emission ratio analysis, cells were sequentially excited using a CFP filter (430/24) with emission measured using YFP (535/30) and CFP (470/24) filters, and a polychroic optimized for the CFP/YFP filter pair (Quad3). Cells were imaged every 1 min, allowing image capture of 14 wells per minute. Baseline emission ratio images were captured for 4 min. […] Cells were then stimulated with the positive control (200 nM phorbol 12,13-dibutyrate for ERK; 200 nM phorbol 12,13-dibutyrate with phosphatase inhibitor cocktail for PKC; 10 μM forskolin, 100 μM 3-isobutyl-1-methylxanthine, 100 nM PGE1 for cAMP) for 10 min to generate a maximal increase, and positive emission ratio images were captured for 4 min. Data were analyzed as described and expressed as emission ratios relative to baseline for each cell (F/F0). Cells with >10% change in F/F0 after stimulation with positive controls were selected for analysis.

The test system of data set [2] is NK1R. Briefly: Alexa568-SP trafficking in HEK-NK1R cells. The format is cell-based, rat. As to conditions: 30 min at 37° C.
For data set [3], the system named is SP-IR and CGRP-IR release. Briefly: Neuropeptide release from mouse dorsal spinal cord. The settings on record: 30 μM; capsaicin 0.3 μM, 10 min. Here is the method:
Slices (0.4 mm) of mouse dorsal spinal cord (combined cervical, thoracic, lumbar-sacral segments) were superfused (0.4 ml·min^−1) with Krebs' solution (mM: NaCl 119, NaHCO3 25, KH2PO4 1.2, MgSO4 1.5, CaCl2 2.5, KCl 4.7, D-glucose 11 mM; […], 37° C.) containing 0.1% BSA, 1 μM phosphoramidon and 1 μM captopril. […] Tissues were then superfused with capsaicin (0.3 μM, 10 min) in the presence of inhibitors or controls. Superfusate (10 min collections, 4 ml) was collected before, during and after capsaicin stimulation, and analyzed for SP-IR and CGRP-IR (Bertin Pharma). […] Detection limits of the assays were 2 pg·ml^−1 for SP-IR and 5 pg·ml^−1 for CGRP-IR. Results are expressed as fmol·g^−1·20 min^−1.

Data set [4] concerns the target T1, NK1R. Briefly: BRET of NK1R trafficking (KRas-Venus, Rab5a-Venus) in HEK293 cells. The data set is classed as cell-based. More on the design: Full length and truncated 6312 rat HA-NK1R have been described; expressed in transfected cells; host or cells: HEK293 (transient). As to conditions: inhibitor plus SP. As to the method:
Bioluminescence Resonance Energy Transfer (BRET) was employed to quantitatively assess the proximity of the NK1R to key regulators of GPCR trafficking (βarrs), and resident proteins of plasma (KRas) and early endosomal (Rab5a) membranes in HEK293 cells (FIG. 1A).
HEK293 cells were transfected with the following cDNAs: 1 μg NK1R-RLuc8 or 1 μg CLR-RLuc8+1 μg Myc-RAMP1+4 μg KRas-Venus, 4 μg Rab5a-Venus, 4 μg βarr1-YFP, or 4 μg βarr2-YFP; or 1 μg NK1R+0.5 μg Gαq-RLuc8+1 μg Gβ1+4 μg Gγ2-Venus; or 1 μg NK1R+0.5 μg Gαq-RLuc8+1 μg Gβ1+1 μg Gγ2+4 μg Rab5a-Venus. After 48 h, cells were equilibrated in Hank's balanced salt solution (HBSS) at 37° C., and incubated with the RLuc substrate coelenterazine h (5 μM, 15 min).

Data set [5] relates to capsaicin-evoked mechanical hyperalgesia in mice. Briefly: Capsaicin-evoked mechanical hyperalgesia and edema in mice.
The test system of data set [6] is formalin-evoked nocifensive behavior in mice. Briefly: Formalin-evoked nocifensive behavior in mice. The format is in vivo, mouse. The settings on record: for effect on formalin-evoked nocifensive behavior: i.t. 30 min before intraplantar formalin. From the text: (§1) Investigators were unaware of test agents.
Data set [7] relates to CFA-induced mechanical hyperalgesia in mice. Briefly: CFA-induced mechanical hyperalgesia in mice. The data set is classed as in vivo, mouse. The settings on record: for effect on CFA-induced sustained mechanical hyperalgesia: endocytic inhibitor i.t. 36 h after CFA.
Excerpt: as §1

The mark [8] stands for this setting: i.t. 30 min before intraplantar capsaicin.
The mark [9] stands for this setting: preincubated 30 min, then immediately challenged with SP.
Setting [10] is: i.t. 3 h before intraplantar capsaicin.
Setting [11] is: i.t. 36 h after intraplantar CFA.

T1 sequence (P14600 whole entry, the tested form may be a part): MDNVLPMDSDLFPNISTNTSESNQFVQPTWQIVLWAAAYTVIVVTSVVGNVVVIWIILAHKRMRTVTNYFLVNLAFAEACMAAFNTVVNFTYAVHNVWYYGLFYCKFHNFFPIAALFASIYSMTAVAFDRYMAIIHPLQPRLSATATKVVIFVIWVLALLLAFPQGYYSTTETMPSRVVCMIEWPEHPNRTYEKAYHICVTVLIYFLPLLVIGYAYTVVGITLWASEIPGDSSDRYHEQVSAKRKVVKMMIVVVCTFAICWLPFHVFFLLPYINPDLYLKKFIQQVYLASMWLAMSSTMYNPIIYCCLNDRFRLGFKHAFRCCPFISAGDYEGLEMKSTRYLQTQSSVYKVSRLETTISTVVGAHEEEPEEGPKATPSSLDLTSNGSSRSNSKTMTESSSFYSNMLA

In the case of `O=C1NC(=NS(=O)(=O)c2cccc3ccccc23)S/C1=C\c1ccc(Br)cc1` [PS2], in data set [1], the “effect on SP activation of cytosolic ERK” value is given as “did not suppress SP activation of cytosolic ERK or plasma membrane cAMP, but caused both responses to become sustained”; the “effect on SP-induced plasma membrane cAMP” value is listed as “did not suppress SP activation of cytosolic ERK or plasma membrane cAMP, but caused both responses to become sustained”; the “effect on plasma membrane PKC activity” value is on record as “amplified plasma membrane PKC activity”; the “effect on SP stimulation of cytosolic PKC” value is reported as “abolished”. Moreover, in data set [1], the “effect on SP stimulation of cytosolic cAMP” value is reported as “abolished” and the “effect on SP stimulation of nuclear ERK” value was “abolished”. Further, in data set [2], the “effect on Alexa568-SP redistribution to endosomes” value is on record as “caused retention of Alexa568-SP in vesicles close to the plasma membrane”. The “effect on basal or capsaicin-stimulated release of SP-IR and CGRP-IR” value in data set [3] is “did not affect”. In addition, in data set [4], the “effect on SP-induced NK1R endocytosis (BRET KRas-Venus decrease, Rab5a-Venus increase)” value is given as “blocked”. Besides, in data set [5] (setting [8]), the “effect on capsaicin-evoked edema (left paw thickness)” value is given as “unaffected” and the “effect on capsaicin-evoked mechanical hyperalgesia (von Frey, left paw)” value (“effect … (von Frey, left paw)” below) is “inhibited hyperalgesia”. Besides, the “effect on paw withdrawal responses of the uninjected right hind paw” value in data set [5] (intrathecal treatment) was “did not affect”. The “effect on formalin-evoked nocifensive behavior” value in data set [6] was “inhibited both phases of nocifensive behavior”. Also, the “effect on CFA-induced sustained mechanical hyperalgesia” value in data set [7] is reported as “partially reversed”.

In the case of `O=C(N/N=C/c1cc(O)c(O)cc1O)c1cc2ccccc2cc1O` [Dy4], in data set [1], the “effect on SP activation of cytosolic ERK” value was “did not suppress SP activation of cytosolic ERK or plasma membrane cAMP, but caused both responses to become sustained”; the “effect on SP-induced plasma membrane cAMP” value is “did not suppress SP activation of cytosolic ERK or plasma membrane cAMP, but caused both responses to become sustained”; the “effect on plasma membrane PKC activity” value was “amplified plasma membrane PKC activity”; the “effect on SP stimulation of cytosolic PKC” value is “abolished”. Besides, in data set [1], the “effect on SP stimulation of cytosolic cAMP” value is reported as “abolished” and the “effect on SP stimulation of nuclear ERK” value is “abolished”. Moreover, the “effect on Alexa568-SP redistribution to endosomes” value in data set [2] is reported as “caused retention of Alexa568-SP in vesicles close to the plasma membrane”. Moreover, the “effect on basal or capsaicin-stimulated release of SP-IR and CGRP-IR” value in data set [3] is recorded as “did not affect”. The “effect on SP-induced NK1R endocytosis (BRET KRas-Venus decrease, Rab5a-Venus increase)” value in data set [4] was “blocked”. Besides, in data set [5] (setting [8]), the “effect on capsaicin-evoked edema (left paw thickness)” value is “unaffected” and the “effect … (von Frey, left paw)” value is reported as “inhibited hyperalgesia”. In addition, the “effect on formalin-evoked nocifensive behavior” value in data set [6] was “inhibited both phases of nocifensive behavior”. For the same molecule, the “effect on CFA-induced sustained mechanical hyperalgesia” value in data set [7] is recorded as “partially reversed”.

On to `CC(=O)N[C@@H](CC(=O)O[C@H]1CC[C@@]2(C)[C@@H](CC[C@@H]3[C@@H]2CC[C@]2(C)[C@@H]([C@H](C)CCCC(C)C)CC[C@@H]32)C1)C(=O)NCCOCCOCCOCCOCCC(=O)NCCOCCOCCOCCC(=O)NCCOCCOCCOCCOCCC(=O)N[C@H](CCCNC(=N)N)C(=O)N1CCC[C@H]1C(=O)N[C@@H](CCCCN)C(=O)N1CCC[C@H]1C(=O)N[C@@H](CCC(N)=O)C(=O)N[C@@H](CCC(N)=O)C(=O)N[C@H](Cc1c[nH]c2ccccc12)C(=O)N[C@@H](Cc1ccccc1)C(=O)N[C@H](Cc1c[nH]c2ccccc12)C(=O)N[C@@H](CC(C)C)C(=O)N[C@@H](CC(C)C)C(N)=O` [Compound 1] (Ac-D(X1)[PEG4][PEG3][PEG4][dR]PKPQQ[dW]F[dW]LL-NH2), for which, in data set [1] (setting [9]), the “antagonism of SP activation of cytosolic ERK, pre-incubation” value is “blocked activation of nuclear and cytosolic ERK”; the “antagonism of SP activation of nuclear ERK, pre-incubation” value was “blocked activation of nuclear and cytosolic ERK”. Moreover, the “antagonism of SP activation of nuclear ERK, pulse incubation” value in data set [1] (pulse incubated 30 min, washed, SP 4 h later) is recorded as “alone inhibited nuclear ERK”. Besides, in data set [5] (i.t. 30 min after capsaicin), the delay of analgesia is reported as 3 h and the duration of analgesia is recorded as over 6 h. Also, in data set [5] (setting [10]), the “duration of inhibition of capsaicin-evoked hyperalgesia” value is listed as over 120 min and the “effect … (von Frey, left paw)” value was “markedly inhibited capsaicin-evoked hyperalgesia”. In data set [6] (i.t. 3 h before intraplantar formalin), the “effect on formalin-evoked nocifensive behavior (both phases)” value is reported as “markedly inhibited both phases of nocifensive behavior”. Also, in data set [7] (setting [11]), the duration of analgesia was over 6 h and the “time after which analgesic” value came out at 4 h.
